Measured values taken from US20120015998A1 (priority 2010, published 2012).

What was measured:
[1] = test system: actinic keratoses lesions; assay: Phototherapy of actinic keratoses lesions with topical photosensitizer prodrug and red light emitting OLED (Device A); type: in vivo, person; settings: 20% topical solution on individual lesions; illuminated about 14-18 hours after application with red OLED Device A
Description: 5-Aminolevulinic acid HCl (20% topical solution, available as LEVULAN® KERASTICK® from DUSA® Pharmaceuticals) is topically applied to individual lesions on a person suffering from actinic keratoses.
Methyl aminolevulinate (16.8% topical cream, available as METVIXIA® Cream from GALERMA LABORATORIES, Fort Worth, Tex., USA) is topically applied to individual lesions on a person suffering from actinic keratoses.

[2] = test system: presumed ocular histoplasmosis; parameters: species or system person; settings: in vivo, iv
pathological myopia = assay: Verteporphin phototherapy of pathological myopia, retina illuminated with red OLED (Device A); settings: about 6 mg/m^2 i.v. over about 10 minutes; retina illuminated about 15 minutes after start of infusion with red OLED Device A
[3] = test system: age-related macular degeneration; assay: Verteporphin phototherapy of age-related macular degeneration, retina illuminated with red OLED (Device A); settings: about 6 mg/m^2 i.v. over about 10 minutes; retina illuminated about 15 minutes after start of infusion with red OLED Device A

Structure (SMILES) | number or severity of the lesions after the treatment [1] | patient's vision after treatment [2] | patient's vision after treatment (pathological myopia) | patient's vision after treatment [3]
Cl.NCC(=O)CCC(=O)O [5-Aminolevulinic acid HCl] | anticipated to be reduced | – | – | –
C=Cc1c(C)c2cc3nc(cc4[nH]c(cc5nc(cc1[nH]2)C(C)=C5CCC(=O)O)c(CCC(=O)OC)c4C)[C@@]1(C)C3=CC=C(C(=O)OC)[C@H]1C(=O)OC [Verteporphin] | – | anticipated to be stabilized | anticipated to be stabilized | anticipated to be stabilized
